As usually defined, the IC50 is the concentration that inhibits the measured activity by half.

Assay [1] concerns the target T1, recombinant rat L-type calcium channel (LTCC) subunits (α1c, α2δ, and β1) (Rattus norvegicus, UniProt P22002).
T1 construct: expressed in transfected cells
Briefly: FLIPR calcium mobilization assay for L-type calcium channel. The assay is classed as cell-based. As to conditions: calcium mobilization in vitro assay; HEK293 cells expressing rat LTCC. As for the experimental part:
Recombinant human embryonal kidney cells (HEK293, ATCC) stably transfected with either N-type calcium channel (NTCC) subunits (α1b, α2δ, and ⊖3) or L-type calcium channel (LTCC) subunits (α1, α2δ, and β1) were routinely cultured in growth medium consisting of Dulbecco's Modified Eagles Medium containing 10% FBS, 100 U/mL penicillin, 100 μg/mL streptomycin, 4 mM L-glutamine, 500 μg/mL geneticin (G418), 20 μg/mL Blasticidin S (InVivogen, San Diego, Calif.) and 500 μg/mL zeocin (InVivogen).
FLIPR Calcium Mobilization Assay for L-Type Calcium Channel.
One day prior to performing this assay, HEK293 cells stably expressing recombinant rat L-type calcium channel (LTCC) subunits (α1c, α2δ, and β1) were trypsinized, then seeded on poly-D-lysine-coated 96-well clear-bottom black plates (Becton Dickinson, Franklin Lakes, N.J.) at 75,000 cells/well. On the day of the assay, the plates were washed with LTCC wash buffer (127 mM NaCl, 2 mM MgCl2, 700 μM NaH2PO4, 5 mM CaCl2, 5 mM NaHCO3, 8 mM HEPES, 10 mM glucose, pH 7.4), then loaded with 0.1 mL of LTCC wash buffer containing Fluo-4 (3 μM final concentration, Molecular Probes, Eugene, Oreg.). After 1 hour, the cells were washed with 0.1 mL LTCC wash buffer and resuspended in 0.05 mL LTCC assay buffer (same composition as LTCC wash buffer). Plates were then transferred to a FLIPR^96 for assay. The FLIPR measured basal Fluo-4 fluorescence for 15 seconds, then is added 0.05 mL of each compound tested diluted in LTCC assay buffer at final concentrations ranging from about 846 pM to about 17 μM. Fluo-4 fluorescence was then measured for 5 minutes. 0.1 mL KCl agonist dissolved in LTCC assay buffer was then added to the cells to produce a final concentration of 90 mM KCl, and fluorescence was measured for another 45 seconds. Data were collected over the entire time course and analyzed using Excel, Graph Pad Prism, or an in-house regression analysis software.
In general terms: A change in cytosolic calcium serves as a functional read-out for many receptors and channels.

Assay [2] addresses T2, N-type calcium channel (NTCC) (Homo sapiens, UniProt Q00975).
T2 construct: host or cells: IMR32 cells differentiated with dibutyryl cAMP and bromodeoxyuridine
Kind of assay: FLIPR calcium mobilization assay for N-type calcium channel. The class given is cell-based. The settings on record: calcium mobilization in vitro assay; differentiated IMR32 cells. An outline of the steps:
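Differentiated IMR32 cells (8 days, dibutyryl cAMP and BrdU) loaded with 3 μM Fluo-4 during 90 mM KCl pre-stimulation, with compound at about 846 pM to 17 μM plus 5 μM nitrendipine. After washes in compound, FLIPR read basal fluorescence 315 s, then 45 s after KCl addition (final 90 mM).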

T2 sequence (Q00975 whole entry): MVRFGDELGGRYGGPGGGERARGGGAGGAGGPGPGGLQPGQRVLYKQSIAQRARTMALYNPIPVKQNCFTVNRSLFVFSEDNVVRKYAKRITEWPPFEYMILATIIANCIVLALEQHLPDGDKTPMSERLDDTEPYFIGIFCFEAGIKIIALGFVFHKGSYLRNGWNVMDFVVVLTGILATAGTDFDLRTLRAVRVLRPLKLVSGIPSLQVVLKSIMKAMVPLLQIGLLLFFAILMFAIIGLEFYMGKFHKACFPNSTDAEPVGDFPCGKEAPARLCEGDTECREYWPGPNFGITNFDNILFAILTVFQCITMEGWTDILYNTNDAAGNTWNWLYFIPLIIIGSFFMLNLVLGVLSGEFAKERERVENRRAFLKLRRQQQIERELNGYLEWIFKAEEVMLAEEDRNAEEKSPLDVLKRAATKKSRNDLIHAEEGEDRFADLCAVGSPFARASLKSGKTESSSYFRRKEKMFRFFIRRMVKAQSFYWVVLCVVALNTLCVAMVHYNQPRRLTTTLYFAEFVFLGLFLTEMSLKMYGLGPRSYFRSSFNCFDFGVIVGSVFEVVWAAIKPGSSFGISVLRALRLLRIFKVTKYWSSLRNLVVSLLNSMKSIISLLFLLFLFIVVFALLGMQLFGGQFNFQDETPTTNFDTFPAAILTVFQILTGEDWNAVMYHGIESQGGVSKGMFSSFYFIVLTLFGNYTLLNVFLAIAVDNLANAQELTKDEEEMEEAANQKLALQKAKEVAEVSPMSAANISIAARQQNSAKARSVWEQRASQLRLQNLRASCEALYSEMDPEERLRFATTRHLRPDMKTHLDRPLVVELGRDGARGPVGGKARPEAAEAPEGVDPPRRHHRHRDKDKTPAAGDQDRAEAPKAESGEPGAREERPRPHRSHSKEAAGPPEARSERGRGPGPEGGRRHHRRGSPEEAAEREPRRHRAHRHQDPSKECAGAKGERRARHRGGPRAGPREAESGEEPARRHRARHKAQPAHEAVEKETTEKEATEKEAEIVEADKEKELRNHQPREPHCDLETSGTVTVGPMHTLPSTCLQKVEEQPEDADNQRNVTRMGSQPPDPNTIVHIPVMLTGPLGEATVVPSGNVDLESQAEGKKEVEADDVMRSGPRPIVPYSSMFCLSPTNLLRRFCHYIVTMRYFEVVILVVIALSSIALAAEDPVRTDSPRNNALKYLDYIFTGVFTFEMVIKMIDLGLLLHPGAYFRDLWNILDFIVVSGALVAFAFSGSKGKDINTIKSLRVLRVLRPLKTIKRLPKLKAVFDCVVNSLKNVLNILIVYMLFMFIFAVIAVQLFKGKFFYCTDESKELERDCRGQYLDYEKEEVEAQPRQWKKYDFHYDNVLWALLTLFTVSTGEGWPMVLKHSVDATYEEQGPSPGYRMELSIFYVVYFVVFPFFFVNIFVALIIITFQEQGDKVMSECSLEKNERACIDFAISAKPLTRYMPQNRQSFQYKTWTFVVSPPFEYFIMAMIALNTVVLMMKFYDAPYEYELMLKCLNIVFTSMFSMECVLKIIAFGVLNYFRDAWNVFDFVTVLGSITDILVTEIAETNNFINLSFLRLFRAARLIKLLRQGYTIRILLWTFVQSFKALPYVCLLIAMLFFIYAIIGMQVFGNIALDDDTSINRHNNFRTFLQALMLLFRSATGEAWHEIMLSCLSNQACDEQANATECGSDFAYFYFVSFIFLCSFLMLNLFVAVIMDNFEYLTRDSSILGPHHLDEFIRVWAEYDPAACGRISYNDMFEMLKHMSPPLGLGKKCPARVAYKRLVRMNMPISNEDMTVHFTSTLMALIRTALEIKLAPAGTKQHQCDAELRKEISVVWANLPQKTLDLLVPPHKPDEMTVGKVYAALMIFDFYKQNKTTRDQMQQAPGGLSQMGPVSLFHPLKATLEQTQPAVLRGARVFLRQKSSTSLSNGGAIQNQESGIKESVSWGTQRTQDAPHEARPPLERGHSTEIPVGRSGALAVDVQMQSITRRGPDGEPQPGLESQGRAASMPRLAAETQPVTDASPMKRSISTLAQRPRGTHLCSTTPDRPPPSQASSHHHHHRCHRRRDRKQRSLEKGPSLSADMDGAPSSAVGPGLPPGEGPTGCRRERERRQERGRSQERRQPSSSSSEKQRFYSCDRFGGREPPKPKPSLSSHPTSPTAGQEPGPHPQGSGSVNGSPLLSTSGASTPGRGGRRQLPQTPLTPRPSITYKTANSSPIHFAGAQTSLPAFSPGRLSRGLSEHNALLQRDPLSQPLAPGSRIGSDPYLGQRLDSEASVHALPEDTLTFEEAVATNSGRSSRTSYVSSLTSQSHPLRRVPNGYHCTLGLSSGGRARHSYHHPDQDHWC
T2 sequence (P54289 25-956 partner limits assumed): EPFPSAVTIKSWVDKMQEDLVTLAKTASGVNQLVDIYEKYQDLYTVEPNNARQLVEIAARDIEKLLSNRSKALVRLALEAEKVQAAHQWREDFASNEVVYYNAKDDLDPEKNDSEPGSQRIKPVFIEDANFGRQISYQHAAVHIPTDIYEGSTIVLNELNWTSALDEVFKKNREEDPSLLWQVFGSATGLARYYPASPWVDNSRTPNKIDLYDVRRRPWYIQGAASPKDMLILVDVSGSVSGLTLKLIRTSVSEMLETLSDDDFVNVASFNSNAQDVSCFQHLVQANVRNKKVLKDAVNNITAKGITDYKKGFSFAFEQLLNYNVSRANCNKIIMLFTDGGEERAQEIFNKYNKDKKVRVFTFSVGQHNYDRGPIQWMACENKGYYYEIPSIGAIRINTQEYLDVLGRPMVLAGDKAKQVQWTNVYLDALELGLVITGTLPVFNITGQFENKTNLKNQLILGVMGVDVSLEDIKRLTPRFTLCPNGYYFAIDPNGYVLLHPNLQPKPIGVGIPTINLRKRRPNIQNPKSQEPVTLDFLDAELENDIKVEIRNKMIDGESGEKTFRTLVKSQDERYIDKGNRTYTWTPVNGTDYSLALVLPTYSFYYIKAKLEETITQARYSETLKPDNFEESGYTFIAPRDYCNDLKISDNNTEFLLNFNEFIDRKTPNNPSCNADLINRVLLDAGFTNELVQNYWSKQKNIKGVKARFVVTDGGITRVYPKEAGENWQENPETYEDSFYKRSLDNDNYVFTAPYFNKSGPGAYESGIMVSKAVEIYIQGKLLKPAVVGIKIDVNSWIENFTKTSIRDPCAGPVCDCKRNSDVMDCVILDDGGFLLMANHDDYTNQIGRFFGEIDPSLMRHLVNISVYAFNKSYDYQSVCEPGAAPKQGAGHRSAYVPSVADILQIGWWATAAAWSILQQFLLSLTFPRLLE
T2 sequence (P54289 957-1103 partner limits assumed): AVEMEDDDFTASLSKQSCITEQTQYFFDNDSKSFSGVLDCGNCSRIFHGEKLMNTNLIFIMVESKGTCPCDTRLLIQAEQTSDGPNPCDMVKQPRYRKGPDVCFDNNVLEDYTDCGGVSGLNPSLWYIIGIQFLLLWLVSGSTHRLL
T2 sequence (P54284 whole entry partner): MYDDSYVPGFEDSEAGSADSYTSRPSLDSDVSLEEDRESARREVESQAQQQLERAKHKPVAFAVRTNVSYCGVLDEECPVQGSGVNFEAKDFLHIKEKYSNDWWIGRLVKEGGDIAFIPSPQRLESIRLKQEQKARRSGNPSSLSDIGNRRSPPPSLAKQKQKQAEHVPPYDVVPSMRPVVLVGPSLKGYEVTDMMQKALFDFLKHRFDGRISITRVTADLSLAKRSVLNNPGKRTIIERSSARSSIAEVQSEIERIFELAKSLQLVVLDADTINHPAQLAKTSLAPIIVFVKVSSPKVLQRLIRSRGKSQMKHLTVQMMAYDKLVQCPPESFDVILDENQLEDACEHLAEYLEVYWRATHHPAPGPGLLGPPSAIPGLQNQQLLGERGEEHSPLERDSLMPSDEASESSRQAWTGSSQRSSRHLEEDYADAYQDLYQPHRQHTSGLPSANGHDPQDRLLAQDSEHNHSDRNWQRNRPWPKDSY

As for `Cc1cc(C)cc(NC(=O)CN2CCC(N(C3CC3)S(=O)(=O)c3cccc(C(F)(F)F)c3)CC2)c1` [Compound 80, 2-{4-[Cyclopropyl-(3-trifluoromethylbenzenesulfonyl)amino]-piperidin-1-yl}-N-(3,5-dimethylphenyl)-acetamide], the figures for the IC50 in assay [1] and in assay [2] were greater than 20000 nM and 500 nM, respectively.

Consider `N#Cc1cc(F)cc(NC(=O)CN2CCC(N(C3CC3)S(=O)(=O)c3cccc(C(F)(F)F)c3)CC2)c1` [Compound 81, N-(3-Cyano-5-fluorophenyl)-2-{4-[cyclopropyl-(3-trifluoromethyl-benzenesulfonyl)amino]-piperidin-1-yl}-acetamide], for which the IC50 in assay [1] was greater than 20000 nM; in assay [2], 360 nM.

Turning to `CC(C)N(C1CCN(CC(=O)N(c2ccc(F)cc2)c2ccc(F)cc2)CC1)S(=O)(=O)c1cccc(C(F)(F)F)c1` [Compound 84, N,N-Bis-(4-fluorophenyl)-2-{4-[isopropyl-(3-trifluoromethyl-benzenesulfonyl)amino]-piperidin-1-yl}-acetamide], the IC50 in assay [1] is greater than 20000 nM; in assay [2], 320 nM.

As to `CC(C)C[C@H](NCc1ccccc1)C(=O)N1CCC(N(C(C)C)S(=O)(=O)c2cccc(C(F)(F)F)c2)CC1` [Compound 88b, (S)—N-[1-(2-Benzylamino-4-methylpentanoyl)-piperidin-4-yl]-N-isopropyl-3-trifluoromethylbenzenesulfonamide], the results for the IC50 in assay [1] and in assay [2] were greater than 20000 nM and 300 nM, respectively.

In the case of `CC(C)C[C@H](NC1CCCC1)C(=O)N1CCC(N(C(C)C)S(=O)(=O)c2cccc(C(F)(F)F)c2)CC1` [Compound 88c, (S)—N-[1-(2-Cyclopentylamino-4-methyl-pentanoyl)-piperidin-4-yl]-N-isopropyl-3-trifluoromethyl-benzenesulfonamide], the IC50 came to 7080 nM in assay [1] and 620 nM in assay [2].

As to `CC(C)N(C1CCN(C(=O)[C@H](Cc2ccccc2)NCC2CCCCC2)CC1)S(=O)(=O)c1cccc(C(F)(F)F)c1` [Compound 88d, (S)—N-{1-[2-(Cyclohexylmethyl-amino)-3-phenyl-propionyl]-piperidin-4-yl}-N-isopropyl-3-trifluoromethyl-benzenesulfonamide], the IC50 amounted to 3580 nM in assay [1] and 100 nM in assay [2].

`CC(C)N(C1CCN(C(=O)CNCc2ccccc2)CC1)S(=O)(=O)c1cccc(C(F)(F)F)c1` [Compound 93, N-[1-(2-Benzylaminoacetyl)-piperidin-4-yl]-N-isopropyl-3-trifluoromethylbenzenesulfonamide]: the values for the IC50 in assay [1] and in assay [2] were 10000 to 20000 nM and 560 nM, respectively.

Take `COc1ccc(CNCC(=O)N2CCC(N(C(C)C)S(=O)(=O)c3cccc(C(F)(F)F)c3)CC2)cc1` [Compound 94, N-Isopropyl-N-{1-[2-(4-methoxy-benzylamino)acetyl]-piperidin-4-yl}-3-trifluoromethylbenzenesulfonamide]: the IC50 in assay [1] was 10000 to 20000 nM; in assay [2], 700 nM.

Take `CCC(C(=O)N1CCC(N(C(C)C)S(=O)(=O)c2cccc(C(F)(F)F)c2)CC1)N(C)Cc1ccccc1` (stereo not shown) [Compound 96, N-{1-[2-(Benzyl-methyl-amino)butyryl]-piperidin-4-yl}-N-isopropyl-3-trifluoromethylbenzenesulfonamide]: the results for the IC50 in assay [1] and in assay [2] were 4410 nM and 820 nM, respectively.

For the molecule `COc1ccc(CNCC(=O)N2CCC(N(C3CC3)S(=O)(=O)c3cccc(C(F)(F)F)c3)CC2)cc1` [Compound 99, N-Cyclopropyl-N-{1-[2-(4-methoxybenzylamino)acetyl]-piperidin-4-yl}-3-trifluoromethylbenzenesulfonamide], the IC50 in assay [1] was greater than 20000 nM; in assay [2] it was 350 nM.

For the molecule `COc1ccc(CNCC(=O)N2CCC(N(C3CC3)S(=O)(=O)c3ccc(Cl)cc3)CC2)cc1` [Compound 100, 4-Chloro-N-cyclopropyl-N-{1-[2-(4-methoxybenzylamino)acetyl]-piperidin-4-yl}-benzenesulfonamide], the IC50 in assay [1] is 10000 to 20000 nM; in assay [2], 660 nM.

`COc1ccccc1CNCC(=O)N1CCC(N(C2CC2)S(=O)(=O)c2ccc(Cl)cc2)CC1` [Compound 101, 4-Chloro-N-cyclopropyl-N-{1-[2-(2-methoxybenzylamino)acetyl]-piperidin-4-yl}-benzenesulfonamide]: the IC50 in assay [1] was 8100 nM; in assay [2] it was 630 nM.

With `CC(C)N(C1CCN(C(=O)CNCC2CCCCC2)CC1)S(=O)(=O)c1cccc(C(F)(F)F)c1` [Compound 102, N-{1-[2-(Cyclohexylmethylamino)acetyl]-piperidin-4-yl}-N-isopropyl-3-trifluoromethylbenzenesulfonamide], the IC50 in assay [1] is greater than 20000 nM; in assay [2] it was 220 nM.

On to `CC(C)N(C1CCN(C(=O)CN(CCO)Cc2ccccc2)CC1)S(=O)(=O)c1cccc(C(F)(F)F)c1` [Compound 103, N-(1-{2-[Benzyl-(2-hydroxyethyl)-amino]acetyl}-piperidin-4-yl)-N-isopropyl-3-trifluoromethylbenzenesulfonamide], for which the values for the IC50 in assay [1] and in assay [2] were 7730 nM and 700 nM, respectively.

With `CC(C)N(C1CCN(CCC(=O)Nc2ccc(F)cc2)CC1)S(=O)(=O)c1cccc(C(F)(F)F)c1` [Compound 107a, N-(4-Fluorophenyl)-3-{4-[isopropyl-(3-trifluoromethylbenzenesulfonyl)amino]-piperidin-1-yl}-propionamide], the IC50 in assay [1] stood at 9750 nM; in assay [2], 570 nM.

For `COc1ccccc1NC(=O)CCN1CCC(N(C(C)C)S(=O)(=O)c2cccc(C(F)(F)F)c2)CC1` [Compound 107b, 3-{4-[Isopropyl-(3-trifluoromethylbenzenesulfonyl)amino]-piperidin-1-yl}-N-(2-methoxyphenyl)-propionamide], the IC50 in assay [1] was greater than 20000 nM; in assay [2] it was 670 nM.

As for `CC(C)N(C1CCN(C(=O)[C@H](Cc2ccccc2)NCC(N)=O)CC1)S(=O)(=O)c1cccc(C(F)(F)F)c1` [Compound 109, (S)-2-(1-Benzyl-2-{4-[isopropyl(3-trifluoromethylbenzene-sulfonyl)amino]-piperidin-1-yl}-2-oxo-ethylamino)-acetamide], the IC50 is 7430 nM in assay [1] and 790 nM in assay [2].

As for `O=C(Nc1cc(C(F)(F)F)cc(C(F)(F)F)c1)N1CCC(N(C2CC2)S(=O)(=O)c2cccc(C(F)(F)F)c2)CC1` [Compound 111, 4-[Cyclopropyl-(3-trifluoromethylbenzenesulfonyl)amino]-piperidine-1-carboxylic acid (3,5-bis-trifluoromethylphenyl)-amide], the IC50 in assay [1] was greater than 20000 nM; in assay [2], 2320 nM.

With `CN(C1CCN(C(=O)Nc2cc(C(F)(F)F)cc(C(F)(F)F)c2)CC1)S(=O)(=O)c1ccccc1` [Compound 112, (4-Benzenesulfonyl-methyl-amino)-piperidine-1-carboxylic acid (3,5-bis-trifluoromethylphenyl)-amide], the IC50 in assay [1] is greater than 20000 nM; in assay [2], 640 nM.

Regarding `CC(C)CC(O)C(=O)N1CCC(N(C(C)C)S(=O)(=O)c2cccc(C(F)(F)F)c2)CC1` (stereo not shown) [N-[1-(2-hydroxy-4-methyl-pentanoyl)-piperidin-4-yl]-N-isopropyl-3-trifluoromethyl-benzenesulfonamide], the results for the IC50 in assay [1] and in assay [2] were 5490 nM and 950 nM, respectively.

Source of the values: patent US8791264B2 (Purdue Pharma L.P., priority 2006, dated 2014).
